The results in this text go back to PMC9686653, “Bioengineered Nisin A Derivatives Display Enhanced Activity against Clinical Neonatal Pathogens” (Antibiotics, 2022).

≈ marks a conversion by molar mass, not a printed value. Like-named read-outs stand apart in the source and are kept apart here. Marks after values point to notes of the source that are not given here.

The test system of one assay is S. capitis AY41. As to the kind of experiment: microbe, parasite or virus in culture. Format: cell-based, Staphylococcus capitis. The protocol: (§1) MIC determinations were carried out in triplicate in 96-well microtiter plates (Sarstedt, Newton, NC, USA) as previously described. Initially, 200µL of 1% bovine serum albumin (BSA) (Sigma-Aldrich, St. Louis, MO, USA) (in PBS) was added to the plates which were incubated at 37 °C for 30 min. The solution was removed, plates were washed with 200 µL PBS and then air dried in a laminar flow hood. Target strains (Streptococcus agalactiae, Staphylococcus capitis and Lactococcus lactis) were grown overnight in suitable media under appropriate conditions and were subsequently sub-cultured into fresh broth and allowed to grow to an optical density of ~0.5 (OD600). The culture was then diluted to a final concentration of 10^5 CFU mL^−1 in a volume of 1 mL. The peptides were resuspended in appropriate media to a stock concentration of […] (S. agalactiae and S. capitis strains) and […] (L. lactis strains). Nisin A and nisin derivatives were adjusted to a starting concentration of 15 µM (S. agalactiae and S. capitis strains) or 5 µM (L. lactis strains). […] An aliquot of 100 µL of peptides and or antibiotics were added to the first well, mixed and then 2-fold serial dilutions of each peptide were made in TSBYE broth. Then, 100 µL of target strain was added to each test well, and the plates were incubated at 30 °C or 37 °C for 16 h. The MIC was read as the lowest peptide concentration causing inhibition of visible growth. Experiments were performed in triplicate.

The next assay has as its system S. agalactiae CIT 67. As to the kind of experiment: Broth MIC assay. Format: cell-based, Streptococcus agalactiae. As to conditions: for MIC: broth microdilution in TSBYE, 10^5 CFU/mL, 16 h, 37 °C, average of three independent biological repeats. Here is the method:
as §1
(In general: In broth dilution the organism is exposed to a series of concentrations in liquid medium.)

In another assay the test system is S. agalactiae CIT 87. Description: Broth MIC assay. The class given is cell-based, Streptococcus agalactiae. Particulars: broth microdilution in TSBYE, 10^5 CFU/mL, 16 h, 37 °C, average of three independent biological repeats. The protocol: as §1
The next assay concerns S. agalactiae CIT 239. Description: Broth MIC assay. Format: cell-based, Streptococcus agalactiae. Here is the method:
as §1

The next assay has as its system S. agalactiae CIT 364. Description: Broth MIC assay. As to conditions: broth microdilution in TSBYE, 10^5 CFU/mL, 16 h, 37 °C, average of three independent biological repeats. The class given is cell-based, Streptococcus agalactiae. The protocol:
as §1

A further assay relates to S. agalactiae CIT 85. Description: Broth MIC assay. The class given is cell-based, Streptococcus agalactiae. The protocol:
as §1

The subject of the next assay is S. capitis strains. Description: Broth MIC assay, summary over isolates. Format: cell-based, Staphylococcus capitis. Particulars: Staphylococcus capitis; span over the isolates the sentence refers to (four or all five). Here is the method: as §1, with “Then, 100 µL of target strain was added to each test well, and the plates were incubated at 30 °C or 37 °C for 16 h.” left out, “Experiments were performed in triplicate.” left out

The subject of a further assay is S. capitis AR18. Description: Broth MIC assay. The class given is cell-based. Particulars: Staphylococcus capitis. Here is the method: as §1
Another assay has as its system S. capitis AV80. As to the kind of experiment: Broth MIC assay. Format: cell-based. Particulars: Staphylococcus capitis. The protocol: as §1
For the next assay, the system named is S. capitis BD01. As to the kind of experiment: Broth MIC assay. The class given is cell-based, Staphylococcus capitis. The protocol: as §1
For another assay, the system named is S. capitis BA06. As to the kind of experiment: Broth MIC assay. As to conditions: Staphylococcus capitis. Format: cell-based, Staphylococcus capitis. Here is the method:
as §1

Another assay has as its system S. agalactiae strains. As to the kind of experiment: Broth MIC assay, summary over isolates. Format: cell-based, Streptococcus agalactiae. As to conditions: Streptococcus agalactiae, read-out: MIC values over S. agalactiae strains, span over the isolates the sentence refers to (three, four or all five). Here is the method:
as §1

The subject of assay [1] is clinical isolates of S. agalactiae (n = 5) and S. capitis (n = 5). Description: Deferred antagonism agar-based assay. The class given is cell-based, Streptococcus agalactiae, Staphylococcus capitis. Particulars: pathogenic indicators, n = 10. Here is the method:
All plates were supplemented with sub-inhibitory concentration (10 µg/L) of nisin in the form of nisaplin to ensure induction of the nisin mutants.
Site-saturation mutagenesis of three codons, including threonine, lysine and methionine, at positions 2, 12 and 17 of the nisA gene, was carried out as described previously. Briefly, pDF23 (pCI372-PV) was used as a template and oligonucleotides, NisT2deg-FOR and REV, NisK12deg-FOR and REV and Nis17deg-FOR and REV, containing an NNK codon potentially encoding for all twenty standard amino acids. Deferred antagonism agar-based assays were employed to assess the bioactivity of the nisin derivatives (PV, K12X-PV, T2X-PV, and M17X-PV) produced by each strain. Briefly, fresh overnight cultures of each L. lactis test culture was replicated on GM17/TSBYE agar plates containing 0.1% nisaplin using a 96-pin replicator (Boekel, Feasterville, PA, USA) and incubated overnight at 30 °C before being exposed to ultraviolet radiation for 45 min. The plates were then overlayed with GM17/TYSBYE agar (0.75% agar) and seeded (0.5% inoculum) with either Lactococcus lactis MG1614 (NSR-), the nisin resistance protein-expressing indicator strain L. lactis MG1614 pNP40 (NSR+) or TSBYE agar seeded with Staphylococcus capitis (NSR+) or Streptococcus agalactiae (NSR+) isolates. […]

Where [2] appears, read: Staphylococcus capitis, AY41, broth microdilution in TSBYE, 10^5 CFU/mL, 16 h, 37 °C, average of three independent biological repeats, read-out: MIC.
The mark [3] stands for this setting: Streptococcus agalactiae, CIT67, read-out: MIC.
The mark [4] stands for this setting: Streptococcus agalactiae, CIT87, read-out: MIC.
Setting [5] is: Streptococcus agalactiae, CIT239, broth microdilution in TSBYE, 10^5 CFU/mL, 16 h, 37 °C, average of three independent biological repeats, read-out: MIC.
Where [6] appears, read: Streptococcus agalactiae, CIT364, read-out: MIC.
[7] abbreviates: Streptococcus agalactiae, CIT85, broth microdilution in TSBYE, 10^5 CFU/mL, 16 h, 37 °C, average of three independent biological repeats, read-out: MIC.
Setting [8] is: AR18, broth microdilution in TSBYE, 10^5 CFU/mL, 16 h, 37 °C, average of three independent biological repeats, read-out: MIC.
[9] abbreviates: AV80, broth microdilution in TSBYE, 10^5 CFU/mL, 16 h, 37 °C, average of three independent biological repeats, read-out: MIC.
Where [10] appears, read: Staphylococcus capitis, BD01, broth microdilution in TSBYE, 10^5 CFU/mL, 16 h, 37 °C, average of three independent biological repeats, read-out: MIC.
The mark [11] stands for this setting: BA06, broth microdilution in TSBYE, 10^5 CFU/mL, 16 h, 37 °C, average of three independent biological repeats, read-out: MIC.
Where [12] appears, read: broth microdilution in TSBYE, 10^5 CFU/mL, 16 h, 37 °C, average of three independent biological repeats.

Take `CNC(C)C1CCC(N)C(OC2C(N)CC(N)C(OC3OCC(C)(O)C(NC)C3O)C2O)O1` (stereo not shown) [Gentamicin, gentamicin]: the MIC with S. capitis AY41 (setting [2]) was found to be 0.39 µg/mL (≈ 0.817 µM); with S. agalactiae CIT 67 (setting [3]), 25 µg/mL (≈ 52.3 µM); in the assay on S. agalactiae CIT 87 (setting [4]), 25 µg/mL (≈ 52.3 µM); in the assay with S. agalactiae CIT 239 (setting [5]) it was 25 µg/mL (≈ 52.3 µM); with S. agalactiae CIT 364 (setting [6]), 25 µg/mL (≈ 52.3 µM); in the assay with S. agalactiae CIT 85 (setting [7]) it was 6.25 µg/mL (≈ 13.1 µM). Besides, the MIC with S. capitis strains, in the assay with S. capitis AR18 (setting [8]), in the assay with S. capitis AV80 (setting [9]), in the assay on S. capitis BD01 (setting [10]) and with S. capitis BA06 (setting [11]) was > 50 µg/mL in each case.
For the compound `CN[C@H](CC(C)C)C(=O)N[C@H]1C(=O)N[C@@H](CC(N)=O)C(=O)N[C@H]2C(=O)N[C@H]3C(=O)N[C@H](C(=O)N[C@H](C(=O)O)c4cc(O)cc(O)c4-c4cc3ccc4O)[C@H](O)c3ccc(c(Cl)c3)Oc3cc2cc(c3O[C@@H]2O[C@H](CO)[C@@H](O)[C@H](O)[C@H]2O[C@H]2C[C@](C)(N)[C@H](O)[C@H](C)O2)Oc2ccc(cc2Cl)[C@H]1O` [Vancomycin, vancomycin], the MIC against S. capitis AY41 (Staphylococcus capitis, AY41, 16 h) was 1.56 µg/mL (≈ 1.08 µM); with S. capitis AR18 (AR18, 16 h), 1.56 µg/mL (≈ 1.08 µM); in the assay with S. capitis AV80 (AV80, 16 h) it was 3.13 µg/mL (≈ 2.16 µM); in the assay with S. capitis BD01 (Staphylococcus capitis, BD01, 16 h) it was 3.13 µg/mL (≈ 2.16 µM); with S. capitis BA06 (BA06, 16 h), 1.56 µg/mL (≈ 1.08 µM).
On to `CC[C@H]1OC(=O)[C@H](C)[C@@H](O[C@H]2C[C@@](C)(OC)[C@@H](O)[C@H](C)O2)[C@H](C)[C@@H](O[C@@H]2O[C@H](C)C[C@H](N(C)C)[C@H]2O)[C@](C)(O)C[C@@H](C)C(=O)[C@H](C)[C@@H](O)[C@]1(C)O` [Erythromycin, erythromycin], for which the MIC was found to be 0.195 µg/mL (≈ 0.266 µM) in the assay with S. capitis AY41 (setting [2]); 1 µg/mL (≈ 1.36 µM) in the assay with S. agalactiae CIT 67 (setting [3]); 0.39 µg/mL (≈ 0.531 µM) in the assay on S. agalactiae CIT 87 (setting [4]); 1.56 µg/mL (≈ 2.13 µM) in the assay on S. agalactiae CIT 239 (Streptococcus agalactiae, CIT239, 16 h); 0.78 µg/mL (≈ 1.06 µM) in the assay on S. agalactiae CIT 364 (setting [6]); 3.13 µg/mL (≈ 4.26 µM) against S. agalactiae CIT 85 (Streptococcus agalactiae, CIT85, 16 h). Also, the MIC is 0.097 µg/mL (≈ 0.132 µM) in the assay with S. capitis AR18 (setting [8]); 12.5 µg/mL (≈ 17 µM) in the assay on S. capitis AV80 (setting [9]); 0.78 to 3.13 µg/mL (≈ 1.06 to 4.26 µM) in the assay on S. agalactiae strains; 6.25 µg/mL (≈ 8.52 µM) in the assay on S. capitis BD01 (setting [10]); 12.5 µg/mL (≈ 17 µM) with S. capitis BA06 (setting [11]).
In the case of penicillin, the MIC in the assay on S. capitis AY41 (setting [12]) was found to be 0.39 µg/mL; in the assay with S. agalactiae CIT 67, 0.04 µg/mL; in the assay with S. agalactiae CIT 87 it was 0.02 µg/mL; in the assay with S. agalactiae CIT 239 (setting [12]), 0.02 µg/mL; in the assay with S. agalactiae CIT 364, 0.02 µg/mL; in the assay on S. agalactiae CIT 85 (setting [12]) it was 0.012 µg/mL. Also, in the assay with S. capitis BD01 (setting [12]), the MIC is recorded as 6.25 µg/mL.
In the case of `CC1(C)S[C@@H]2[C@H](NC(=O)[C@H](N)c3ccccc3)C(=O)N2[C@H]1C(=O)O` [Ampicillin, ampicillin], the MIC with S. agalactiae CIT 67 (setting [3]) is 1.56 µg/mL (≈ 4.46 µM); in the assay with S. agalactiae CIT 87 (setting [4]), 0.78 µg/mL (≈ 2.23 µM); in the assay with S. agalactiae CIT 239 (setting [5]), 0.097 µg/mL (≈ 0.278 µM); in the assay with S. agalactiae CIT 364 (setting [6]) it was 0.78 µg/mL (≈ 2.23 µM); in the assay with S. agalactiae CIT 85 (setting [7]) it was 0.097 µg/mL (≈ 0.278 µM); in the assay on S. agalactiae strains, 0.78 to 1.56 µg/mL (≈ 2.23 to 4.46 µM).
`C=C(NC(=O)[C@@H](NC(=O)[C@H](Cc1c[nH]cn1)NC(=O)[C@@H](NC(=O)[C@@H]1CCCN1C(=O)[C@@H]1CS[C@@H](C)[C@H]2NC(=O)[C@H](C)NC(=O)[C@H](NC(=O)[C@H](CCCCN)NC(=O)[C@H](CCSC)NC(=O)[C@H](CC(N)=O)NC(=O)[C@@H]3CS[C@@H](C)[C@@H](NC(=O)[C@H](CCCCN)NC(=O)[C@@H]4CS[C@@H](C)[C@@H](NC(=O)[C@@H]5CSC[C@@H](NC(=O)[C@H](C)NC(=O)[C@@H](N)[C@@H](C)CC)C(=O)N[C@@H]([C@@H](C)CC)C(=O)NC(=C)C(=O)N[C@@H](CC(C)C)C(=O)N5)C(=O)N5CCC[C@H]5C(=O)NCC(=O)N4)C(=O)NCC(=O)N[C@@H](C)C(=O)N[C@@H](CC(C)C)C(=O)N[C@@H](CCSC)C(=O)NCC(=O)N3)[C@H](C)SC[C@H](NC2=O)C(=O)N[C@@H](Cc2c[nH]cn2)C(=O)N1)C(C)C)C(C)C)C(=O)N[C@@H](CCCCN)C(=O)O` [T2A-PV]: in the assay with S. capitis AY41 (16 h), the MIC was 12.5 * µg/mL. Besides, in the assay on S. capitis AY41 (from MIC), the “fold decrease in potency compared to nisin PV” value is 2 fold and the “fold increase in potency compared to nisin A” value was 2 fold. Moreover, in assay [1], the “bioactivity (zone of inhibition) of the producing strain” value is recorded as “not apparent against the pathogenic isolates”. Also, in the assay on S. agalactiae CIT 67 (from MIC), the “fold decrease in specific activity compared to nisin A” value is reported as 2 fold and the “fold decrease in specific activity compared to nisin PV” value worked out at 4 fold.
